Test results as given in patent publication US12459922B2 (Gilead Sciences, Inc., priority 2022, dated 2025).
pEC50, pIC50: −log10 of the molar value.

Experiments:
[1] = biological target: T1, PARP7 (Homo sapiens, UniProt Q7Z3E1); assay: Probe Displacement Assay for PARP7 (MSD electrochemiluminescent, biotinylated probe RBNO11147); conditions: displacement of biotinylated probe RBNO11147 from PARP7 NAD+-binding site; read-out: MSD ProbeDisp PARP7 IC50
T1 sequence (Q7Z3E1 1-657): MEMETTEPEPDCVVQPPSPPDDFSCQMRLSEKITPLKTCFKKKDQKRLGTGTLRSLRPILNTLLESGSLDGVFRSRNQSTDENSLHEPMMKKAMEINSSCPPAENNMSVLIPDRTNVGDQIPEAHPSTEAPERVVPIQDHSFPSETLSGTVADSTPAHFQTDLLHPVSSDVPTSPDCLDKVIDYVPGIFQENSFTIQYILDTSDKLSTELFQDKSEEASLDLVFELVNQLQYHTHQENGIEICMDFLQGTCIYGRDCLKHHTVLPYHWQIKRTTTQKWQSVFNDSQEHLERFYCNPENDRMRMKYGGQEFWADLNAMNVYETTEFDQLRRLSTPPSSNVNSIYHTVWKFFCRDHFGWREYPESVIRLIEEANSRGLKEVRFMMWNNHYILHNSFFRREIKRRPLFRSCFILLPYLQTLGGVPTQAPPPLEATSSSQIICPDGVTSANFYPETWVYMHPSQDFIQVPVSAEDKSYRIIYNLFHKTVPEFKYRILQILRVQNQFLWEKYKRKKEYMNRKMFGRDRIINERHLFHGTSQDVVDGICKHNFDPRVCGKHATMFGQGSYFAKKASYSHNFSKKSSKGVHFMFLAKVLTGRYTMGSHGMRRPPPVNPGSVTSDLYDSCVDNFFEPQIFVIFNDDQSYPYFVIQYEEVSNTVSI
Experimental: Displacement of a biotinylated probe (RBNO11147; Wigle et al., Cell Chemical Biology, 2020, pp. 877-887) from the PARP7 NAD+-binding site was measured in vitro using a Mesoscale Discovery electrochemiluminescent assay. […] Next, 10 ml of 10 nM PARP7 protein incubated for 1 hour at room temperature with a dose response curve of each test compound in a Greiner LDV polypropylene plate (#781201) is added to the MSD plate containing the immobilized probe. The interaction is allowed to reach equilibrium for 1.5 hours, and then 10 ml of SULFO-TAG labeled anti-GST antibody (Cat #R32AA-1) is added to each well and allowed to incubate for an additional 1.5 hours at room temperature. Finally, 10 ml of MSD read buffer T (4×, Cat. #R92C-1) is added to each well using a Bravo liquid handler to prevent air bubbles in the wells, and the plates are subsequently read in an MSD instrument. Light intensity is then measured to quantify the amount of PARP7 bound to the immobilized probe on the plate.

[2] = test system: endogenous cellular STAT1 (phosphorylated at Tyr701) in NCI-H1373 cells; assay: Phospho-STAT1 (Tyr701) LANCE Ultra TR-FRET Detection Assay; assay type: cell-based; conditions: Homo sapiens, NCI-H1373, 48 h, phospho-STAT1 (Tyr701) induction, read-out: NH1373 pSTAT1 EC50

SMILES	pIC50 [1]	pEC50 [2]
C[C@@H](CCCn1cnc2cc(-c3ccc(C(F)(F)F)cn3)c(F)cc2c1=O)Nc1cn[nH]c(=O)c1C(F)(F)F [Example 58, (S)-6-fluoro-3-(4-((6-oxo-5-(trifluoromethyl)-1,6-dihydropyridazin-4-yl)amino)pentyl)-7-(5-(trifluoromethyl)pyridin-2-yl)quinazolin-4(3H)-one]	9.32	6.91
C[C@@H](CCCn1ccc2cc(-c3ccc(OC(F)F)cn3)c(F)cc2c1=O)Nc1cn[nH]c(=O)c1C(F)(F)F [Example 43, 6-[5-(difluoromethoxy)-2-pyridyl]-7-fluoro-2-[(4S)-4-[[6-oxo-5-(trifluoromethyl)-1H-pyridazin-4-yl]amino]pentyl]isoquinolin-1-one]	9.12	6.51
C[C@@H](CCCn1ccc2cc(-c3ncc4c(n3)NC(=O)CO4)c(F)cc2c1=O)Nc1cn[nH]c(=O)c1C(F)(F)F [Example 185, (S)-2-(7-fluoro-1-oxo-2-(4-((6-oxo-5-(trifluoromethyl)-1,6-dihydropyridazin-4-yl)amino)pentyl)-1,2-dihydroisoquinolin-6-yl)-6H-pyrimido[5,4-b][1,4]oxazin-7(8H)-one]	9.96	5.76
C[C@@H](CCCn1ccc2cc(-c3ccc(F)cn3)cc(F)c2c1=O)Nc1cn[nH]c(=O)c1C(F)(F)F [Example 19, (S)-8-fluoro-6-(5-fluoropyridin-2-yl)-2-(4-((6-oxo-5-(trifluoromethyl)-1,6-dihydropyridazin-4-yl)amino)pentyl)isoquinolin-1(2H)-one]	9.52	7.13
O=c1[nH]ncc(N2C[C@H]3C[C@H]3[C@H]2CCCn2ccc3nc(-c4ccc(C(F)(F)F)cn4)ccc3c2=O)c1C(F)(F)F [Example 47, 6-[3-[(1R,2R,5S)-3-[6-oxo-5-(trifluoromethyl)-1H-pyridazin-4-yl]-3-azabicyclo[3.1.0]hexan-2-yl]propyl]-2-[5-(trifluoromethyl)-2-pyridyl]-1,6-naphthyridin-5-one]	8.90	5.00
C[C@@H](CCCn1ccc2cc(-c3ncc(C(F)F)c(N)n3)c(F)cc2c1=O)Nc1cn[nH]c(=O)c1C(F)(F)F [Example 104, 6-[4-amino-5-(difluoromethyl)pyrimidin-2-yl]-7-fluoro-2-[(4S)-4-[[6-oxo-5-(trifluoromethyl)-1H-pyridazin-4-yl]amino]pentyl]isoquinolin-1-one]	9.48	8.34
C[C@@H](CCCn1ccc2cc(-c3nc4ccccc4o3)c(F)cc2c1=O)Nc1cn[nH]c(=O)c1C(F)(F)F [Example 307, (S)-6-(benzo[d]oxazol-2-yl)-7-fluoro-2-(4-((6-oxo-5-(trifluoromethyl)-1,6-dihydropyridazin-4-yl)amino)pentyl)isoquinolin-1(2H)-one]	9.45	7.95
C[C@@H](CCCn1ccc2c(F)c(-c3ncc(C(F)(F)F)cn3)ccc2c1=O)Nc1cn[nH]c(=O)c1C(F)(F)F [Example 6, 5-fluoro-2-[(4S)-4-[[6-oxo-5-(trifluoromethyl)-1H-pyridazin-4-yl]amino]pentyl]-6-[5-(trifluoromethyl)pyrimidin-2-yl]isoquinolin-1-one]	9.15	6.36
COc1cnc(-c2cc3ccn(CCC[C@H](C)Nc4cn[nH]c(=O)c4C(F)(F)F)c(=O)c3cc2F)nc1 [Example 22, (S)-7-fluoro-6-(5-methoxypyrimidin-2-yl)-2-(4-((6-oxo-5-(trifluoromethyl)-1,6-dihydropyridazin-4-yl)amino)pentyl)isoquinolin-1(2H)-one]	9.40	7.15
O=c1[nH]ncc(NC2(CCCn3ccc4cc(-c5ncc(C(F)(F)F)cn5)c(F)cc4c3=O)CC2)c1C(F)(F)F [Example 61, 7-fluoro-2-(3-(1-((6-oxo-5-(trifluoromethyl)-1,6-dihydropyridazin-4-yl)amino)cyclopropyl)propyl)-6-(5-(trifluoromethyl)pyrimidin-2-yl)isoquinolin-1(2H)-one]	8.90	6.19
C[C@@H](CCCn1ccc2cc(-c3ncc(C(F)(F)F)cn3)c(F)cc2c1=O)Nc1cn[nH]c(=O)c1C(F)(F)F [Example 8, 7-fluoro-2-[(4S)-4-[[6-oxo-5-(trifluoromethyl)-1H-pyridazin-4-yl]amino]pentyl]-6-[5-(trifluoromethyl)pyrimidin-2-yl]isoquinolin-1-one]	9.70	7.72
C[C@@H](CCCn1ccc2cc(-c3ccc(C(F)(F)F)cn3)c(F)cc2c1=O)Nc1cn[nH]c(=O)c1C(F)(F)F [Example 9, 7-fluoro-2-[(4S)-4-[[6-oxo-5-(trifluoromethyl)-1H-pyridazin-4-yl]amino]pentyl]-6-[5-(trifluoromethyl)-2-pyridyl]isoquinolin-1-one]	9.40	7.04
C[C@@H](CCCn1ccc2cc(-c3ccc(OC(F)F)cn3)cc(F)c2c1=O)Nc1cn[nH]c(=O)c1C(F)(F)F [Example 17, (S)-6-(5-(difluoromethoxy)pyridin-2-yl)-8-fluoro-2-(4-((6-oxo-5-(trifluoromethyl)-1,6-dihydropyridazin-4-yl)amino)pentyl)isoquinolin-1(2H)-one]	9.40	6.93
C[C@@H](CCCn1ccc2cc(-c3ncc(C(F)(F)F)s3)c(F)cc2c1=O)Nc1cn[nH]c(=O)c1C(F)(F)F [Example 309, (S)-7-fluoro-2-(4-((6-oxo-5-(trifluoromethyl)-1,6-dihydropyridazin-4-yl)amino)pentyl)-6-(5-(trifluoromethyl)thiazol-2-yl)isoquinolin-1(2H)-one]	9.59	6.83
CC[C@@H](CCCn1cnc2cc(-c3ncc(C(F)F)cn3)c(F)cc2c1=O)Nc1cn[nH]c(=O)c1C(F)(F)F [Example 156, 7-[5-(difluoromethyl)pyrimidin-2-yl]-6-fluoro-3-[(4S)-4-[[6-oxo-5-(trifluoromethyl)-1H-pyridazin-4-yl]amino]hexyl]quinazolin-4-one]	9.54	7.66
CC[C@@H](CCCn1ccc2cc(-c3ncc(C(F)(F)F)cn3)c(F)cc2c1=O)Nc1cn[nH]c(=O)c1C(F)(F)F [Example 37, 7-fluoro-2-[(4S)-4-[[6-oxo-5-(trifluoromethyl)-1H-pyridazin-4-yl]amino]hexyl]-6-[5-(trifluoromethyl)pyrimidin-2-yl]isoquinolin-1-one]	9.40	7.37
Nc1nc(-c2cc3ccn(C[C@@H]4CCC[C@H](Nc5cn[nH]c(=O)c5C(F)(F)F)C4)c(=O)c3cc2F)ncc1C(F)(F)F [Example 184, 6-[4-amino-5-(trifluoromethyl)pyrimidin-2-yl]-7-fluoro-2-[[(1R,3S)-3-[[6-oxo-5-(trifluoromethyl)-1H-pyridazin-4-yl]amino]cyclohexyl]methyl]isoquinolin-1-one]	9.51	8.74
C[C@@H](CCCn1ccc2cc(-c3ncc(F)cn3)c(F)c(F)c2c1=O)Nc1cn[nH]c(=O)c1C(F)(F)F [Example 54, (S)-7,8-difluoro-6-(5-fluoropyrimidin-2-yl)-2-(4-((6-oxo-5-(trifluoromethyl)-1,6-dihydropyridazin-4-yl)amino)pentyl)isoquinolin-1(2H)-one]	9.16	6.81
